The target of experiment [1] is human GLP-1 receptor (hGLP-1R) (Homo sapiens, UniProt P43220). The experiment can be described thus: cAMP production (HTRF) in CHO cells expressing hGLP-1R. It is filed as cell-based. On the set-up: expressed in transfected cells. The following applies: for EC50: Table 6, peptides modified at position 17, cAMP in CHO hGLP-1R cells, geometric mean, read-out: hGLP-1R EC50; for % Relative Potency Ratio: Table 6, % GLP-1R activity relative to GLP-1 / % GlucR activity relative to glucagon. In short, it runs like this: (§1)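 Potency values represent EC50 from 4-parameter logistic curves of HTRF % Delta F signal. Receptor-expressing CHO cells (hGCGR 2×10^5 cells/mL, hGLP-1R 1×10^5 cells/mL) were exposed for 30 min at room temperature before two-step cAMP detection.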

In experiment [2] the target is human glucagon receptor (hGCGR) (Homo sapiens, UniProt P47871). The experiment can be described thus: cAMP production (HTRF) in CHO cells expressing hGCGR. In kind it is cell-based. On the set-up: expressed in transfected cells. The following applies: Table 6, peptides modified at position 17; cAMP in CHO hGCGR cells; geometric mean; read-out: hGluc-R EC50. In short, it runs like this:
as §1

Starred links: 1 amine or outer side, 2 acyl side, 3 side chain; linkers in the order of their positions; H or OH if unused. Non-standard residues stand in square brackets, D forms with d. Residues, ends and D or L forms follow the SMILES beside them. Groups on a side chain read outwards from the residue. *: point of attachment. C18 diacid = O=C(O)CCCCCCCCCCCCCCCCC(=O)*; γGlu = O=C(O)[C@H](CCC(=O)[*:2])N[*:1]; αMeF = C[C@](N)(Cc1ccccc1)C(=O)O; AEEA = NCCOCCOCC(=O)O; Aib = CC(C)(N)C(=O)O

The values below come from patent US20250353891A1 (MEDIMMUNE LIMITED, priority 2022, published 2025).

human glucagon receptor (hGCGR), sequence (P47871 26-477): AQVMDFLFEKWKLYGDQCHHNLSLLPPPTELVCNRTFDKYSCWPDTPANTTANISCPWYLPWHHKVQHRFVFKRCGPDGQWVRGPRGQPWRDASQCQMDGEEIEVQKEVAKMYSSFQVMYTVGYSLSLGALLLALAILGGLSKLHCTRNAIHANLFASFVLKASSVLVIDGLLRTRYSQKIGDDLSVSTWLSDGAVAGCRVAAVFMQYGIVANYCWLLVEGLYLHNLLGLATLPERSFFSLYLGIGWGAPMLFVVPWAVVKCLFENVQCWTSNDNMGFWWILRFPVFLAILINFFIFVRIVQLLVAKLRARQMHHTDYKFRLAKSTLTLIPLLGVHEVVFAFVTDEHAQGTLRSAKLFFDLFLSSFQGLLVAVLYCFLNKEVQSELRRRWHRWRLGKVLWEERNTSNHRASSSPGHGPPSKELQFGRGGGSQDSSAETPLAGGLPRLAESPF
human GLP-1 receptor (hGLP-1R), sequence (P43220 24-463): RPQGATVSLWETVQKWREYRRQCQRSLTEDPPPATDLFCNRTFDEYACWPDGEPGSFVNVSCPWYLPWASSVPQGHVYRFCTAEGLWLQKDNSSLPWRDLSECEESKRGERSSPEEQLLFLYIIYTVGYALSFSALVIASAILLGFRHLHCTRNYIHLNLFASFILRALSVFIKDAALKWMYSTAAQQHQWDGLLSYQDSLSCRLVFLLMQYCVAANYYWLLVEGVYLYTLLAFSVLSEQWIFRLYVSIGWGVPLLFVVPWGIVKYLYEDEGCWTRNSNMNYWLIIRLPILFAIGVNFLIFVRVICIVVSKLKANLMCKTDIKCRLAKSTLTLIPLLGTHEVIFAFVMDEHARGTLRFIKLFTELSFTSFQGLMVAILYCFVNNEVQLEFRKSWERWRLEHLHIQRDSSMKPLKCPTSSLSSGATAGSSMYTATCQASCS

Consider `CC[C@H](C)[C@H](NC(=O)[C@H](Cc1c[nH]c2ccccc12)NC(=O)[C@H](CCC(N)=O)NC(=O)[C@@H](NC(=O)[C@H](Cc1ccccc1)NC(=O)[C@H](CC(=O)O)NC(=O)C(C)(C)NC(=O)[C@H](C)NC(=O)[C@H](CCCNC(=N)N)NC(=O)[C@H](CCCCNC(=O)CC[C@H](NC(=O)CCCCCCCCCCCCCCCCC(=O)O)C(=O)O)NC(=O)[C@H](CO)NC(=O)[C@H](CC(=O)O)NC(=O)[C@H](CC(C)C)NC(=O)[C@](C)(Cc1ccccc1)NC(=O)[C@H](CCCCN)NC(=O)[C@H](CO)NC(=O)[C@@H](NC(=O)[C@H](CC(=O)O)NC(=O)[C@H](CO)NC(=O)[C@@H](NC(=O)[C@H](Cc1ccccc1)NC(=O)[C@@H](NC(=O)CNC(=O)[C@H](CCC(N)=O)NC(=O)C(C)(C)NC(=O)[C@@H](N)Cc1c[nH]cn1)[C@@H](C)O)[C@@H](C)O)C(C)C)C(C)C)C(=O)N[C@@H](C)C(=O)N[C@@H](CC(N)=O)C(=O)N[C@H](C(N)=O)[C@@H](C)O` [Peptide 32] (H-H[Aib]QGTFTSDVSK[αMeF]LDSK([γGlu-C18 diacid])RA[Aib]DFVQWIANT-NH2; N-terminus assumed), for which, in experiment [1], the EC50 was 0.013 nM and the “% Relative Potency Ratio” value was found to be 36.7. Moreover, in experiment [2], the EC50 was determined as 0.24 nM.

With `CC(C)C[C@H](NC(=O)[C@H](Cc1c[nH]c2ccccc12)NC(=O)[C@H](CCC(N)=O)NC(=O)[C@@H](NC(=O)[C@H](Cc1ccccc1)NC(=O)[C@H](CC(=O)O)NC(=O)[C@H](CCC(N)=O)NC(=O)[C@H](C)NC(=O)[C@H](CCCNC(=N)N)NC(=O)[C@H](CCCCNC(=O)COCCOCCNC(=O)COCCOCCNC(=O)CC[C@H](NC(=O)CCCCCCCCCCCCCCCCC(=O)O)C(=O)O)NC(=O)[C@H](CO)NC(=O)[C@H](CC(=O)O)NC(=O)[C@H](CC(C)C)NC(=O)[C@](C)(Cc1ccccc1)NC(=O)[C@H](CCCCN)NC(=O)[C@H](CO)NC(=O)[C@@H](NC(=O)[C@H](CC(=O)O)NC(=O)[C@H](CO)NC(=O)[C@@H](NC(=O)[C@H](Cc1ccccc1)NC(=O)[C@@H](NC(=O)CNC(=O)[C@H](CCC(N)=O)NC(=O)C(C)(C)NC(=O)[C@@H](N)Cc1c[nH]cn1)[C@@H](C)O)[C@@H](C)O)C(C)C)C(C)C)C(=O)N[C@@H](CCC(=O)O)C(=O)NC(C)(C)C(=O)N[C@H](C(=O)O)[C@@H](C)O` [Peptide 33] (H-H[Aib]QGTFTSDVSK[αMeF]LDSK([AEEA-AEEA-γGlu-C18 diacid])RAQDFVQWLE[Aib]T-OH), in experiment [1], the EC50 turned out to be 0.213 nM and the “% Relative Potency Ratio” value was found to be 5.1. Besides, in experiment [2], the EC50 is 0.548 nM.

As to `CC(C)C[C@H](NC(=O)[C@H](Cc1c[nH]c2ccccc12)NC(=O)[C@H](CCC(N)=O)NC(=O)[C@@H](NC(=O)[C@H](Cc1ccccc1)NC(=O)[C@H](CC(=O)O)NC(=O)[C@H](CCC(N)=O)NC(=O)[C@H](C)NC(=O)[C@H](CCCNC(=N)N)NC(=O)[C@H](CCCCNC(=O)COCCOCCNC(=O)COCCOCCNC(=O)CC[C@H](NC(=O)CCCCCCCCCCCCCCCCC(=O)O)C(=O)O)NC(=O)[C@H](CO)NC(=O)[C@H](CC(=O)O)NC(=O)[C@H](CC(C)C)NC(=O)[C@](C)(Cc1ccccc1)NC(=O)[C@H](CCCCN)NC(=O)[C@H](CO)NC(=O)[C@@H](NC(=O)[C@H](CC(=O)O)NC(=O)[C@H](CO)NC(=O)[C@@H](NC(=O)[C@H](Cc1ccccc1)NC(=O)[C@@H](NC(=O)CNC(=O)[C@H](CCC(N)=O)NC(=O)C(C)(C)NC(=O)[C@@H](N)Cc1c[nH]cn1)[C@@H](C)O)[C@@H](C)O)C(C)C)C(C)C)C(=O)N[C@@H](CC(C)C)C(=O)NC(C)(C)C(=O)N[C@@H](CCC(=O)O)C(=O)O` [Peptide 34] (H-H[Aib]QGTFTSDVSK[αMeF]LDSK([AEEA-AEEA-γGlu-C18 diacid])RAQDFVQWLL[Aib]E-OH; N-terminus assumed), in experiment [1], the EC50 was 0.0824 nM and the “% Relative Potency Ratio” value was 3.9. For the same molecule, in experiment [2], the EC50 was 0.161 nM.

With `CC(C)C[C@H](NC(=O)[C@H](Cc1c[nH]c2ccccc12)NC(=O)[C@H](CCC(N)=O)NC(=O)[C@@H](NC(=O)[C@H](Cc1ccccc1)NC(=O)[C@H](CC(=O)O)NC(=O)[C@H](CCC(N)=O)NC(=O)[C@H](C)NC(=O)[C@H](CCCNC(=N)N)NC(=O)[C@H](CCCCNC(=O)COCCOCCNC(=O)COCCOCCNC(=O)CC[C@H](NC(=O)CCCCCCCCCCCCCCCCC(=O)O)C(=O)O)NC(=O)[C@@H](NC(=O)[C@H](CC(=O)O)NC(=O)[C@H](CC(C)C)NC(=O)[C@](C)(Cc1ccccc1)NC(=O)[C@H](CCCCN)NC(=O)[C@H](CO)NC(=O)[C@@H](NC(=O)[C@H](CC(=O)O)NC(=O)[C@H](CO)NC(=O)[C@@H](NC(=O)[C@H](Cc1ccccc1)NC(=O)[C@@H](NC(=O)CNC(=O)[C@H](CCC(N)=O)NC(=O)C(C)(C)NC(=O)[C@@H](N)Cc1c[nH]cn1)[C@@H](C)O)[C@@H](C)O)C(C)C)[C@@H](C)O)C(C)C)C(=O)N[C@@H](CC(C)C)C(=O)NC(C)(C)C(=O)N[C@H](C(=O)O)[C@@H](C)O` [Peptide 35] (H-H[Aib]QGTFTSDVSK[αMeF]LDTK([AEEA-AEEA-γGlu-C18 diacid])RAQDFVQWLL[Aib]T-OH; N-terminus assumed), the EC50 in experiment [1] came to 0.0837 nM; in experiment [2], 0.335 nM. Also, in experiment [1], the “% Relative Potency Ratio” value is recorded as 7.9.

For the molecule `CC(C)C[C@H](NC(=O)[C@H](Cc1c[nH]c2ccccc12)NC(=O)[C@H](CCC(N)=O)NC(=O)[C@@H](NC(=O)[C@H](Cc1ccccc1)NC(=O)[C@H](CC(=O)O)NC(=O)[C@H](CCCNC(=N)N)NC(=O)[C@H](C)NC(=O)[C@H](CCCNC(=N)N)NC(=O)[C@H](CCCCNC(=O)COCCOCCNC(=O)COCCOCCNC(=O)CC[C@H](NC(=O)CCCCCCCCCCCCCCCCC(=O)O)C(=O)O)NC(=O)[C@H](CO)NC(=O)[C@H](CC(=O)O)NC(=O)[C@H](CC(C)C)NC(=O)[C@](C)(Cc1ccccc1)NC(=O)[C@H](CCCCN)NC(=O)[C@H](CO)NC(=O)[C@@H](NC(=O)[C@H](CC(=O)O)NC(=O)[C@H](CO)NC(=O)[C@@H](NC(=O)[C@H](Cc1ccccc1)NC(=O)[C@@H](NC(=O)CNC(=O)[C@H](CCC(N)=O)NC(=O)C(C)(C)NC(=O)[C@@H](N)Cc1c[nH]cn1)[C@@H](C)O)[C@@H](C)O)C(C)C)C(C)C)C(=O)N[C@@H](CC(C)C)C(=O)NC(C)(C)C(=O)N[C@H](C(=O)O)[C@@H](C)O` [Peptide 36] (H-H[Aib]QGTFTSDVSK[αMeF]LDSK([AEEA-AEEA-γGlu-C18 diacid])RARDFVQWLL[Aib]T-OH; N-terminus assumed), in experiment [1], the EC50 is 0.0431 nM and the “% Relative Potency Ratio” value is 12.8. In addition, the EC50 in experiment [2] came to 0.278 nM.

Regarding `CC(C)C[C@H](NC(=O)[C@H](Cc1c[nH]c2ccccc12)NC(=O)[C@H](CCC(N)=O)NC(=O)[C@@H](NC(=O)[C@H](Cc1ccccc1)NC(=O)[C@H](CC(=O)O)NC(=O)[C@H](CCC(=O)O)NC(=O)[C@H](C)NC(=O)[C@H](CCCNC(=N)N)NC(=O)[C@H](CCCCNC(=O)COCCOCCNC(=O)COCCOCCNC(=O)CC[C@H](NC(=O)CCCCCCCCCCCCCCCCC(=O)O)C(=O)O)NC(=O)[C@H](CO)NC(=O)[C@H](CC(=O)O)NC(=O)[C@H](CC(C)C)NC(=O)[C@](C)(Cc1ccccc1)NC(=O)[C@H](CCCCN)NC(=O)[C@H](CO)NC(=O)[C@@H](NC(=O)[C@H](CC(=O)O)NC(=O)[C@H](CO)NC(=O)[C@@H](NC(=O)[C@H](Cc1ccccc1)NC(=O)[C@@H](NC(=O)CNC(=O)[C@H](CCC(N)=O)NC(=O)C(C)(C)NC(=O)[C@@H](N)Cc1c[nH]cn1)[C@@H](C)O)[C@@H](C)O)C(C)C)C(C)C)C(=O)N[C@@H](CC(C)C)C(=O)NC(C)(C)C(=O)N[C@H](C(=O)O)[C@@H](C)O` [Peptide 37] (H-H[Aib]QGTFTSDVSK[αMeF]LDSK([AEEA-AEEA-γGlu-C18 diacid])RAEDFVQWLL[Aib]T-OH), the 50% effective concentration (EC50) in experiment [1] was found to be 0.0686 nM; in experiment [2], 2.75 nM. The “% Relative Potency Ratio” value in experiment [1] amounted to 79.2.

Take `CC(C)C[C@H](NC(=O)[C@H](Cc1c[nH]c2ccccc12)NC(=O)[C@H](CCC(=O)O)NC(=O)[C@@H](NC(=O)[C@H](Cc1ccccc1)NC(=O)[C@H](CC(=O)O)NC(=O)[C@H](CCC(N)=O)NC(=O)[C@H](C)NC(=O)[C@H](CCCNC(=N)N)NC(=O)[C@H](CCCCNC(=O)COCCOCCNC(=O)COCCOCCNC(=O)CC[C@H](NC(=O)CCCCCCCCCCCCCCCCC(=O)O)C(=O)O)NC(=O)[C@H](CO)NC(=O)[C@H](CC(=O)O)NC(=O)[C@H](CC(C)C)NC(=O)[C@](C)(Cc1ccccc1)NC(=O)[C@H](CCCCN)NC(=O)[C@H](CO)NC(=O)[C@@H](NC(=O)[C@H](CC(=O)O)NC(=O)[C@H](CO)NC(=O)[C@@H](NC(=O)[C@H](Cc1ccccc1)NC(=O)[C@@H](NC(=O)CNC(=O)[C@H](CCC(N)=O)NC(=O)C(C)(C)NC(=O)[C@@H](N)Cc1c[nH]cn1)[C@@H](C)O)[C@@H](C)O)C(C)C)C(C)C)C(=O)N[C@@H](CC(C)C)C(=O)NC(C)(C)C(=O)N[C@H](C(=O)O)[C@@H](C)O` [Peptide 38] (H-H[Aib]QGTFTSDVSK[αMeF]LDSK([AEEA-AEEA-γGlu-C18 diacid])RAQDFVEWLL[Aib]T-OH; N-terminus assumed): in experiment [1], the half-maximal effective concentration (EC50) came out at 0.0756 nM and the “% Relative Potency Ratio” value was found to be 11.6. Besides, the EC50 in experiment [2] is 0.441 nM.
